# According to patent US20050074834A1 (priority 2001, published 2005):
# “Also recorded” adds a separate entry of the source.
# Assays:
# erythrophores = type: cell-based
# chromatophores [1] = system: chromatophores
# [2] = system: Betta splendens erythrophores; type: cell-based
# chromatophores [3] = test: cells; details: read-out: Threshold concentration PPM
# melanophores = type: cell-based
# iridophores = type: cell-based
# fish chromatophores = type: cell-based
smiles,measurement,setting,value
"c1ccc2cc3c(ccc4ccccc43)cc2c1 [1,2-Benzanthracene]",Chromatophore response Erythrophores,erythrophores,Imp.
same,Threshold concentration PPM,chromatophores [1],X (key: X=1 to 100 PPM; XX=100 to 1000 PPM)
CNc1ccc2oc(C[C@H]3O[C@@]4(CC[C@H]3C)O[C@H]([C@H](C)C(=O)c3ccc[nH]3)[C@H](C)C[C@H]4C)nc2c1C(=O)O [A23187],Morphology Effect: Aggregation,[2],No
same,Morphology Effect: Dispersion,[2],No
c1cc2c3c(cccc3c1)CC2 [Acenapthene],Chromatophore response Erythrophores,erythrophores,Imp.
same,Threshold concentration PPM,chromatophores [1],X (key: X=1 to 100 PPM; XX=100 to 1000 PPM)
CC(=O)OCC[N+](C)(C)C [Acetylcholine],minimal effective concentration,chromatophores [3],1 to 100 µg/mL
Nc1ncnc2c1ncn2[C@@H]1O[C@H](CO)[C@@H](O)[C@H]1O [Adenosine],Chromatophore response (cell spans the chromatophore type columns),chromatophores [1],Disp.
same,minimal effective concentration,chromatophores [3],100 to 1000 µg/mL
[Ag] [Ag],Chromatophore response (cell spans the chromatophore type columns),chromatophores [1],Imp. (FS)
same,Threshold concentration PPT,chromatophores [1],X (key: X=1 PPT or higher)
N [Ammonium],Chromatophore response (cell spans the chromatophore type columns),chromatophores [1],Imp. (FS)
same,Threshold concentration PPM,chromatophores [1],XX (key: X=1 to 100 PPM; XX=100 to 1000 PPM)
CC(N)Cc1ccccc1 (centres unmarked) [Amphetamine],Chromatophore response (cell spans the chromatophore type columns),chromatophores [1],Aggr. (FS)
same,minimal effective concentration,chromatophores [3],1 to 100 µg/mL
CC(=O)OCOC(=O)CN(CC(=O)OCOC(C)=O)c1ccccc1OCCOc1ccccc1N(CC(=O)OCOC(C)=O)CC(=O)OCOC(C)=O [BAPTA/AM],Morphology Effect: Aggregation,[2],No
same,Morphology Effect: Dispersion,[2],Yes
same,erythrophore pigment response on addition,[2],pigment dispersion
COC(=O)C1=C(C)NC(C)=C([N+](=O)[O-])C1c1ccccc1C(F)(F)F (centres unmarked) [Bay K8644],erythrophore pigment response on direct application,[2],neither the aggregation nor dispersion of erythrophore pigment
C=C(C=O)C[C@@H]1C[C@H](O)[C@]2(C)O[C@@H]3C[C@@H]4O[C@@H]5C[C@]6(C)O[C@]7(C)CC[C@@H]8O[C@@H]9C[C@]%10(C)O[C@@H]%11C(C)=CC(=O)O[C@H]%11C[C@H]%10O[C@H]9C[C@@H](C)[C@H]8O[C@H]7C[C@H]6O[C@H]5C/C=C\[C@H]4O[C@H]3C[C@H]2O1 [Brevetoxin],Chromatophore response (cell spans the chromatophore type columns),chromatophores [1],Aggr. (FS)
same,Response time Hr.,chromatophores [1],X (key: X=1-6 hr; XX=6-24 hr)
same,Threshold concentration PPM,chromatophores [1],X (key: X=1 to 100 PPM; XX=100 to 1000 PPM)
"CCCCCCC(C)(C)c1ccc([C@@H]2C[C@H](O)CC[C@H]2CCCO)c(O)c1 [Cannabinoid CP-55940, CP-55940]",Chromatophore response (cell spans the chromatophore type columns),chromatophores [1],Disp. (FS)
COc1cc(CNC(=O)CCCC/C=C/C(C)C)ccc1O [Capsaicin],Chromatophore response Melanophores,melanophores,Hollow-
same,minimal effective concentration,chromatophores [3],1 to 100 µg/mL
COc1cc2c(c(OC)c1OC)-c1ccc(OC)c(=O)cc1[C@@H](NC(C)=O)CC2 [Colchicine],minimal effective concentration,chromatophores [3],100 to 1000 µg/mL
[Cu] [Cu],Chromatophore response (cell spans the chromatophore type columns),chromatophores [1],Imp. (FS)
same,Threshold concentration PPT,chromatophores [1],X (key: X=1 PPT or higher)
C=CC[C@@H](CC/C(C)=C/C=C/CC/C=C\[C@@H]1CSC([C@@H]2C[C@@H]2C)=N1)OC [Curacin A],Chromatophore response (cell spans the chromatophore type columns),chromatophores [1],Aggr. and Imp. (FS)
same,Response time Hr.,chromatophores [1],X (key: X=1-6 hr; XX=6-24 hr)
same,Threshold concentration PPM,chromatophores [1],X (key: X=1 to 100 PPM; XX=100 to 1000 PPM)
C=C1[C@@H](C)[C@H]2[C@H](Cc3ccccc3)NC(=O)[C@]23[C@H](OC(C)=O)/C=C/[C@@](C)(O)C(=O)[C@@H](C)C/C=C/[C@H]3[C@@H]1O [Cytochalasin D],Chromatophore response Melanophores,melanophores,Imp.
same,Threshold concentration PPM,chromatophores [1],XX (key: X=1 to 100 PPM; XX=100 to 1000 PPM)
CNCCCN1c2ccccc2CCc2ccccc21 [Desipramine],Chromatophore response (cell spans the chromatophore type columns),chromatophores [1],Aggr. (FS)
same,minimal effective concentration,chromatophores [3],1 to 100 µg/mL
COP(=O)(OC)OC=C(Cl)Cl [Dichlorvos],Chromatophore response Erythrophores,erythrophores,Imp. (FS)
same,Chromatophore response Iridophores,iridophores,"Hue change, then Imp."
same,Response time Hr.,chromatophores [1],X (key: X=1-6 hr; XX=6-24 hr)
NCCc1ccc(O)c(O)c1 [Dopamine],Chromatophore response (cell spans the chromatophore type columns),chromatophores [1],Aggr. (FS)
same,minimal effective concentration,chromatophores [3],100 to 1000 µg/mL
CCOP(=S)(Oc1ccc([N+](=O)[O-])cc1)c1ccccc1 (centres unmarked) [EPN],Response time Hr.,chromatophores [1],X (key: X=1-6 hr; XX=6-24 hr)
same,Threshold concentration PPM,chromatophores [1],XX (key: X=1 to 100 PPM; XX=100 to 1000 PPM)
c1ccc2c(c1)-c1cccc3cccc-2c13 [Fluoranthene],minimal effective concentration,chromatophores [3],1 to 100 µg/mL
C=O [Formaldehyde],minimal effective concentration,chromatophores [3],100 to 1000 µg/mL
O=S(=O)(NCCNC/C=C/c1ccc(Br)cc1)c1cccc2cnccc12 [H89],chromatophore response in the absence of forskolin,fish chromatophores,aggregate; also recorded: aggregation
same,chromatophore response in the presence of forskolin,fish chromatophores,continues to be responsive; also recorded: still results in cell aggregation
NCCc1c[nH]cn1 [Histamine],minimal effective concentration,chromatophores [3],100 to 1000 µg/mL
